Reference: patent publication US10456359B2, “Synergistic beverage composition” (Harsha Chigurupati, priority 2015, dated 2019)
Where a SMILES comes first, the peptide text is derived from it.

Experiments:
interleukin-12 (IL-12) [1] = assay: CNS/immunology study, serum IL-12, alcohol 5 days; assay type: in vivo, Wistar albino rats; details: Pro: Protection (%), rats, alcohol 5 Day
From the text: (§1) For hangover, 1 day immunology parameter were considered and for CNS, 5 days immunology parameter were considered.

Interferon gamma (IFN-γ) [2] = assay: Hangover study, serum IFN-gamma, alcohol 1 day; assay type: in vivo, Wistar albino rats; set-up: concentration or dose not given beside the values; details: 1 Day alcohol
From the text: (§2) Distilled ethanol was obtained from Bengal Chemicals, West Bengal, India. Biochemical kits like AST, ALT, ALP and total protein were obtained from Span Diagnostics Ltd. Surat, India. Rat IL-12 ELISA kit (Elabscience Biotechnology Co. Ltd, WuHan, P.R.C.), Rat CRP ELISA kit (BD Biosciences, USA), Rat IFN-gamma ELISA kit (Biolegend, San Diego, Calif.) Rat MCP-1 ELISA kit (Elabscience Biotechnology Co. Ltd, WuHan, P.R.C.). All the chemicals used in the present study were of analytical grade and obtained from the following companies: Sigma (St. Louis, Mo., USA), Merck (Mumbai, India), S D fine chemicals (Mumbai, India) and Qualigen (Mumbai, India).
as §1

[3] = tested on: alkaline phosphatase (ALP); details: Pro: Protection (%); rats, alcohol 4 gm/kg/day p.o., 5 days, serum
Experimental: The levels of alanine aminotransferase (ALT), aspartate aminotransferase (AST) and alkaline phosphatise (ALP) in serum were measured using commercial spectrophotometric kit bought from Span Diagnostic Ltd. (www.span.in) according to the manufacturer's protocols.
12-16 hours after the last dose, the animals were sacrificed and blood samples were collected for estimation of biochemical parameters.
Male Wistar albino rats weighing 150-200 g were procured and randomly divided into groups consisting of twelve (12) animals in each group. Hepatoprotection was induced by alcohol in rats by oral administration of 30% alcohol (4 gm/kg/day, p.o.) for 5 days and this group served as the negative control and treated groups received different formulation.
All drug solutions were prepared in 40% aqueous alcohol, adjusting the pH in the range of 5.0-10.0 for evaluation of alcohol induced Hepatoprotection. This solution was further diluted with distilled water to obtain 30% aqueous alcoholic solution and administered orally by gavage to different rats group of step (a).

[4] = tested on: serum alanine aminotransferase (ALT); assay: Hepatoprotection study, serum ALT, alcohol 5 days; assay type: in vivo, Wistar albino rats; details: Pro: Protection (%), rats, alcohol 4 gm/kg/day p.o.
[5] = tested on: aspartate aminotransferase (AST); assay: Hepatoprotection study, serum AST, alcohol 5 days; assay type: in vivo, Wistar albino rats; details: Pro: Protection (%), rats, alcohol 4 gm/kg/day p.o.
[6] = tested on: Monocyte chemoattractant protein-1 (MCP-1) from brain homogenate; assay: CNS study, MCP-1 from brain homogenate, alcohol 5 days; assay type: in vivo, Wistar albino rats; details: Pro: Protection (%), rats, alcohol 5 Day
[7] = tested on: acetylcholinesterase activity of brain homogenate; details: Pro: Protection (%), rats, alcohol 5 Day
Experimental: (§4) We have included this parameter to evaluate cognition and memory deficit in experimental animals.
(§5) Experimental Design • (b) Animal study model 1: Saline/Alcohol (4.0 gm/kg/day, p.o.)/Formulation with alcohol (4.0 gm/kg/day, p.o.) were administered (fed orally by orogastric cannula) for one day. 12-16 hours after the dose the animals were sacrificed and blood samples will be collected for estimation of biochemical parameters. Whole brain without cerebellum were dissected out, 10% homogenate was prepared with 0.1 M PB (pH 7.4). The homogenate solution was centrifuged at 10000 rpm for 20 minutes at 4° C. and the supernatant was used for estimation of acetylcholinesterase activity, which was estimated by Ellman's method (Ellman G L et al. A new and rapid colorimetric determination of acetylcholinesterase activity. Biochem Pharmacol, 1961, 7:88.) • (c) Animal study model 2: Saline/Alcohol (4.0 gm/kg/day, p.o.)/Formulation with alcohol (4.0 gm/kg/day, p.o.) were administered (fed orally by orogastric cannula) for 5 consecutive days. 12-16 hours after the last dose, the animals were sacrificed and blood samples were collected for estimation of biochemical parameters. Whole brain without cerebellum were dissected out, 10% homogenate was prepared with 0.1 M PB (pH 7.4). The homogenate solution was centrifuged at 10000 rpm for 20 minutes at 4° C. and the supernatant was used for estimation of acetylcholinesterase activity. […] The latency period of day 5 (before alcohol) was compared with post alcohol latency period (Vorhees C V and Williams M T. Morris water maze: procedures for assessing spatial and related forms of learning and memory, Nat Protoc, 2006, 1(2): 848-58.). % Protection Calculated in Above Experiments: % Protection=1−[(T−NS)/(AL−NS)]×100 T=Mean value of drug treated, NS=Mean value of normal control, AL=Mean value of alcohol alone.
(§6) Male Wistar albino rats weighing 150-200 g were procured and randomly divided into groups consisting of twelve (12) animals in each group. Alcohol induced hangover and CNS related biochemical changes and memory function in rats by oral administration of 30% alcohol (4 gm/kg/day, p.o.) for 1 and 5 days and this group served as the negative control and treated groups received different formulation.
(§7) All drug solutions were prepared in 40% aqueous alcohol, adjusting the pH in the range of 5.0-10.0 for evaluation of alcohol induced hangover and CNS related biochemical parameters.

[8] = tested on: Monocyte chemoattractant protein-1 (MCP-1); assay: Hangover study, serum MCP-1, alcohol 1 day; assay type: in vivo, Wistar albino rats; set-up: concentration or dose not given beside the values; details: 1 Day alcohol
Experimental: (§3) The lowest detectable limit of the kit is 0.1 ng/ml (Wang L, Li Y, Chen J, et al. “Ischemic Cerebral Tissue and MCP-1 Enhance Rat Bone Marrow Stromal Cell Migration in Interface Culture.” Experimental Hematology, 30, 7, 2002, 831-836).
as §1

[9] = tested on: Monocyte chemoattractant protein-1 (MCP-1) from brain homogenate; assay: Hangover study, MCP-1 from brain homogenate, alcohol 1 day; assay type: in vivo, Wistar albino rats; details: 1 Day alcohol
[10] = tested on: acetylcholinesterase activity of brain homogenate; details: Hangover study, 1 Day alcohol; ingredient amounts in mass concentration (%)
Experimental: as §4, §5, §6, §7

[11] = tested on: spatial learning and memory; assay: Morris water maze task (escape latency), alcohol 5 days; assay type: in vivo, Wistar albino rats; details: Pro: Protection (%), rats, alcohol 5 day
[12] = tested on: interleukin-12 (IL-12) from brain homogenate; assay: CNS study, IL-12 from brain homogenate, alcohol 5 days; assay type: in vivo, Wistar albino rats; details: Pro: Protection (%), rats, alcohol 5 Day
Interferon gamma (IFN-γ) [13] = assay: CNS/immunology study, serum IFN-gamma, alcohol 5 days; assay type: in vivo, Wistar albino rats; details: Pro: Protection (%), rats, alcohol 5 Day
From the text: as §2, §1

[14] = tested on: interleukin-12 (IL-12) from brain homogenate; assay: Hangover study, IL-12 from brain homogenate, alcohol 1 day; assay type: in vivo, Wistar albino rats; set-up: concentration or dose not given beside the values; details: 1 Day alcohol
interleukin-12 (IL-12) [15] = assay: Hangover study, serum IL-12, alcohol 1 day; assay type: in vivo, Wistar albino rats; set-up: concentration or dose not given beside the values; details: 1 Day alcohol
From the text: as §1

[16] = tested on: Monocyte chemoattractant protein-1 (MCP-1); assay: CNS/immunology study, serum MCP-1, alcohol 5 days; assay type: in vivo, Wistar albino rats; details: Pro: Protection (%), rats, alcohol 5 Day
Experimental: as §3, §1

[17] = tested on: serum C-reactive protein (CRP); assay: CNS/immunology study, serum CRP, alcohol 5 days; assay type: in vivo, Wistar albino rats; details: Pro: Protection (%), rats, alcohol 5 Day
From the text: as §1

[18] = tested on: serum C-reactive protein (CRP); assay: Hangover study, serum CRP, alcohol 1 day; assay type: in vivo, Wistar albino rats; details: 1 Day alcohol
From the text: as §1

serum ALT, AST and ALP = assay: Hepatoprotection study overall (rise of serum ALT, AST and ALP), 5 alcohol doses; assay type: in vivo, Wistar albino rats; details: 5 alcohol doses of 4 gm/kg per oral

CC1(C(=O)O)CCC2(C)CCC3(C)C(=CC(=O)C4C5(C)CCC(OC6OC(C(=O)O)C(O)C(O)C6OC6OC(C(=O)O)C(O)C(O)C6O)C(C)(C)C5CCC43C)C2C1 (stereo not drawn) [0.04 GA, 18β-GA]
IL12 Pro (interleukin-12 (IL-12) [1]): 3.08% | IFN-Gamma Pro (Protection) (Interferon gamma (IFN-γ) [2]): 1.25% | ALP Pro [3]: 2.78% | ALT Pro [4]: 0.89% | AST Pro [5]: 2.18% | Brain MCP-1 Pro [6]: 1.58% | ACHe Pro [7]: 1.43% | MCP-1 Pro (Protection) [8]: 0.6% | Brain MCP-1 Pro (Protection) [9]: 1.15% | ACHe Pro (Protection) [10]: 0.59% | WATER MAZE Pro [11]: 1.58% | Brain IL12 Pro [12]: 1.28% | IFN-Gamma Pro (Interferon gamma (IFN-γ) [13]): 1.07% | Brain IL12 Pro (Protection) [14]: 1.09% | IL12 Pro (Protection) (interleukin-12 (IL-12) [15]): 1.05% | MCP-1 Pro [16]: 3.38% | CRP Pro [17]: 2.37% | CRP Pro (Protection) [18]: 2.04%

CC1(C(=O)O)CCC2(C)CCC3(C)C(=CC(=O)C4C5(C)CCC(OC6OC(C(=O)O)C(O)C(O)C6OC6OC(C(=O)O)C(O)C(O)C6O)C(C)(C)C5CCC43C)C2C1 (stereo not drawn) [0.04a GA, 18α-GA]
IL12 Pro (interleukin-12 (IL-12) [1]): 0.1% | IFN-Gamma Pro (Protection) (Interferon gamma (IFN-γ) [2]): 0.1% | ALP Pro [3]: 1.08% | ALT Pro [4]: 1.26% | AST Pro [5]: 2.24% | Brain MCP-1 Pro [6]: 0.1% | ACHe Pro [7]: 0.1% | MCP-1 Pro (Protection) [8]: 0.1% | Brain MCP-1 Pro (Protection) [9]: 0.1% | ACHe Pro (Protection) [10]: 0.1% | WATER MAZE Pro [11]: 2.1% | Brain IL12 Pro [12]: 0.1% | IFN-Gamma Pro (Interferon gamma (IFN-γ) [13]): 0.1% | Brain IL12 Pro (Protection) [14]: 0.1% | IL12 Pro (Protection) (interleukin-12 (IL-12) [15]): 0.1% | MCP-1 Pro [16]: 0.1% | CRP Pro [17]: 0.1% | CRP Pro (Protection) [18]: 0.1%

C[C@H](N)C(=O)N[C@@H](CCC(N)=O)C(=O)O [0.5 DP, L-Ala-L-Gln] (H-Ala-Gln-OH)
IL12 Pro (interleukin-12 (IL-12) [1]): 2.64% | IFN-Gamma Pro (Protection) (Interferon gamma (IFN-γ) [2]): 2.58% | ALP Pro [3]: 6.95% | ALT Pro [4]: 9.13% | AST Pro [5]: 5.86% | Brain MCP-1 Pro [6]: 5.12% | ACHe Pro [7]: 4.33% | MCP-1 Pro (Protection) [8]: 4.33% | Brain MCP-1 Pro (Protection) [9]: 4.59% | ACHe Pro (Protection) [10]: 4.33% | WATER MAZE Pro [11]: 5.18% | Brain IL12 Pro [12]: 2.35% | IFN-Gamma Pro (Interferon gamma (IFN-γ) [13]): 3.32% | Brain IL12 Pro (Protection) [14]: 3.69% | IL12 Pro (Protection) (interleukin-12 (IL-12) [15]): 0.54% | MCP-1 Pro [16]: 0.1% | CRP Pro [17]: 6.13% | CRP Pro (Protection) [18]: 4.05%

C[C@H](N)C(=O)N[C@@H](CCC(N)=O)C(=O)O [0.75 DP, L-Ala-L-Gln] (H-Ala-Gln-OH)
IL12 Pro (interleukin-12 (IL-12) [1]): 13.88% | IFN-Gamma Pro (Protection) (Interferon gamma (IFN-γ) [2]): 6.38% | ALP Pro [3]: 12.24% | ALT Pro [4]: 5.28% | AST Pro [5]: 9.14% | Brain MCP-1 Pro [6]: 9.63% | ACHe Pro [7]: 6.73% | MCP-1 Pro (Protection) [8]: 5.25% | Brain MCP-1 Pro (Protection) [9]: 10.14% | ACHe Pro (Protection) [10]: 8.94% | WATER MAZE Pro [11]: 13.15% | Brain IL12 Pro [12]: 7.01% | IFN-Gamma Pro (Interferon gamma (IFN-γ) [13]): 5.62% | Brain IL12 Pro (Protection) [14]: 7.14% | IL12 Pro (Protection) (interleukin-12 (IL-12) [15]): 14.84% | MCP-1 Pro [16]: 0.75% | CRP Pro [17]: 3.78% | CRP Pro (Protection) [18]: 15.93%

CC1(C(=O)O)CCC2(C)CCC3(C)C(=CC(=O)C4C5(C)CCC(OC6OC(C(=O)O)C(O)C(O)C6OC6OC(C(=O)O)C(O)C(O)C6O)C(C)(C)C5CCC43C)C2C1 (stereo not drawn) [GA, 18-beta-Glycyrrhizin]
degree of protection (serum ALT, AST and ALP; GA as such at 0.04-0.3%): 5-25%

C[C@H](N)C(=O)N[C@@H](CCC(N)=O)C(=O)O [L-alanine-L-glutamine (DP), L-alanyl-L-glutamine] (H-Ala-Gln-OH)
degree of protection (serum ALT, AST and ALP; dose level of 0.5 to 1.0%): mild effect | degree of protection (serum ALT, AST and ALP; higher doses (2.0 to 3.0%)): high degree of protection

OC[C@@H](O)[C@@H](O)[C@H](O)[C@H](O)CO [Mannitol, D-Mannitol]
degree of protection (serum ALT, AST and ALP; individual ingredient at 0.5 to […]): 10-38%
